Results reported in patent publication US12551463B2, “Dosing of a Bruton's tyrosine kinase inhibitor” (Loxo Oncology, Inc., priority 2019, dated 2026).
“Also recorded” adds a separate entry of the source.

Legend:
DLBCL = assay: Phase 1/2 clinical study, DLBCL patients; type: in vivo, human
Excerpt: (§1) The study is an open-label, multi-center study of oral BTK-I to evaluate safety and efficacy as monotherapy and as part of combination therapy in patients with CLL/SLL and NHL who have failed or are intolerant to standard of care. This study includes monotherapy as well as combination treatment parts. The monotherapy part includes Phase 1 dose escalation and dose expansion as well as Phase 2. The combination therapy part is a Phase 1b (safety assessment and expansion) of BTK-I in combination with venetoclax, with or without anti-CD20 therapy. Phase 1 dose escalation will proceed prior to start of Phase 1b or Phase 2. Once a recommended Phase 2 dose (RP2D) is identified in Phase 1, enrollment can commence to the Phase 1b combination therapies and Phase 2 monotherapy cohorts. […]
(§2) The primary objective of the Phase 2 is to assess the primary anti-tumor activity of BTK-I based on overall response rate (ORR) and as assessed by the Independent Review Committee. […]
(§3) Dosing during Phase 2 will be at the RP2D of 200 mg QD. […] The dose (and schedule) chosen for Phase 2 may be changed by the SRC based on emerging data (e.g., PK, safety, and/or efficacy) as long as the new dose is not greater than the highest dose that has a DLT <33% and is determined to be safe by the SRC in Phase 1. […]

TMD8 BTK WT cells = assay: In vivo mouse xenograft study, TMD8 BTK WT; design: species or system mice; settings: BTK-I BID alone; BTK WT driven TMD8 (DLBCL) xenograft
Experimental: (§4) In all studies, test articles are administered alone and in combination, following different dosing regimens.
(§5) Human TMD8 BTK WT, TMD8 BTK C481S or REC-1 cells are injected subcutaneously in the right flank of mice. When tumors reach a mean volume between 150 mm^3 and 400 mm^3, mice are randomized based on their tumor volumes. Mice are next dosed for 14 to 23 days depending on the study design. The potencies of the compounds stand-alone or in combination on the inhibition of the tumor growth are assessed based on the tumor volume changes and weights after collection at the end of the study. Additionally, in the TMD8 studies, the plasma concentrations of test articles are measured at multiple time points after the last dose.

[1] = tested on: CLL/SLL, MCL, Waldenstrom's macroglobulinemia and follicular lymphoma patients; assay: Human clinical trials of BTK-I: overall response rate in efficacy-evaluable patients; type: in vivo
Experimental: (Mato A., et al., “Toxicities and Outcomes of 616 Ibrutinib-Treated Patients in the United States: A Real-World Analysis”, Haematologica, 2018, 103(5), 874-879.) Between Mar. 21, 2019 and Sep. 27, 2020, across 7 dose levels ranging from 25 mg once daily (QD) to 300 mg QD in 323 patients, the only treatment-emergent adverse events regardless of attribution or grade seen in ≥10% of patients (n=323) were fatigue (n=65, 20%), diarrhea (n=55, 17%), and contusion (n=42, 13%). In 121 efficacy-evaluable cBTKi-treated chronic lymphocytic leukemia (CLL) patients (median prior lines=4), overall response rate (ORR) was 62% (95% CI: 53-71), rising to 84% in patients followed for ≥10 months.

[2] = tested on: Waldenstrom's macroglobulinemia; assay: Phase 1/2 clinical study, Waldenstrom's macroglobulinemia patients; type: in vivo, human
Excerpt: (§6) The study is an open-label, multi-center study of oral BTK-I to evaluate safety and efficacy as monotherapy and as part of combination therapy in patients with CLL/SLL and NHL who have failed or are intolerant to standard of care. This study includes monotherapy as well as combination treatment parts. The monotherapy part includes Phase 1 dose escalation and dose expansion as well as Phase 2. The combination therapy part is a Phase 1b (safety assessment and expansion) of BTK-I in combination with venetoclax, with or without anti-CD20 therapy. Phase 1 dose escalation will proceed prior to start of Phase 1b or Phase 2. Once a recommended Phase 2 dose (RP2D) is identified in Phase 1, enrollment can commence to the Phase 1b combination therapies and Phase 2 monotherapy cohorts.
(§7) The primary objectives of the Phase 1 Dose Escalation and Expansion part of the study is to determine the maximum tolerated dose (MTD)/RP2D of oral BTK-I in patients with previously treated CLL/SLL and B-cell NHL.
(§8) Patients are enrolled with histologically confirmed CLL/SLL or B-cell NHL who have failed or are intolerant to at least two prior standard of care regimens given in combination or sequentially or have received at least one prior BTK inhibitor-containing regimen when BTK inhibitor is approved in first line.
(§9) BTK-I is administered in oral tablet form. Dose escalation will follow a 3+3 design starting with a 25 mg QD dose (followed by 50 mg QD (dose level cohort 2), 100 mg QD (dose level cohort 3), 150 mg QD (dose level cohort 4), 200 mg QD (dose level cohort 5), 250 mg QD (dose level cohort 6), and 300 mg QD (dose level cohort 7)). Cycle length will be 28 days. The drug limiting toxicity (DLT) period will be 28 days, commencing with the first dose of BTK-I.
The primary objective of the Phase 2 is to assess the primary anti-tumor activity of BTK-I based on overall response rate (ORR) and as assessed by the Independent Review Committee.
At the RP2D up to ˜600 patients with CLL/SLL or NHL will be enrolled to one of the following cohorts: • Cohort 1: Non-blastoid MCL patients treated with a prior BTK-inhibitor. • Cohort 2: CLL/SLL patients treated with 2 or more prior regimens, including a BTK inhibitor-containing regimen. • Cohort 3: CLL/SLL patients with no prior therapy. • Cohort 4: CLL/SLL patients treated with prior therapy, BTK inhibitor naive. • Cohort 5: WM patients treated with a prior BTK inhibitor containing regimen. • Cohort 6: MZL patients treated with a prior BTK inhibitor containing regimen. • Cohort 7: (Not otherwise specified) defined as CLL/SLL or NHL not otherwise specified in Cohorts 1 through 6, inclusive of CLL/SLL or NHL, Richter's transformation, blastoid MCL, and patients with history of CNS involvement or primary CNS lymphoma.
Dosing during Phase 2 will be at the RP2D of 200 mg QD. The cycle length will be 28 days. BTK-I will be administered to the Phase 2 patients in oral tablet form at the RP2D. The dose (and schedule) chosen for Phase 2 may be changed by the SRC based on emerging data (e.g., PK, safety, and/or efficacy) as long as the new dose is not greater than the highest dose that has a DLT <33% and is determined to be safe by the SRC in Phase 1. If the RP2D is changed based on emerging data, patients enrolled to Phase 2 at a different dose may have the dose changed to the new dose.

follicular lymphoma = assay: Phase 1/2 clinical study, follicular lymphoma patients; type: in vivo, human; settings: among 8 efficacy-evaluable patients
Excerpt: as §1, §2, §3

Richter's transformation = assay: Phase 1/2 clinical study, Richter's transformation patients; type: in vivo, human; settings: 6 of 8 patients
Excerpt: as §1, §2, §3

TMD8 BTK C481S cells = assay: In vivo mouse xenograft study, TMD8 BTK C481S; design: species or system mice; settings: BTK-I BID alone; BTK C481S driven TMD8 (DLBCL) xenograft
Experimental: as §4, §5

CLL/SLL and B-cell NHL = assay: Phase 1/2 clinical study of oral BTK-I monotherapy, all patients; type: in vivo, human
Excerpt: as §6, §7, §8, §9, §2, §3

REC-1 cells = assay: In vivo mouse xenograft study, REC-1; design: species or system mice; settings: BTK-I BID alone; BTK WT driven REC-1 (MCL) xenograft
Experimental: as §4, §5

[3] = of 13 with prior covalent BTK inhibitor

For `COc1ccc(F)cc1C(=O)NCc1ccc(-c2nn([C@@H](C)C(F)(F)F)c(N)c2C(N)=O)cc1` [BTK-I, (S)-5-amino-3-(4-((5-fluoro-2-methoxybenzamido)methyl)phenyl)-1-(1,1,1-trifluoropropane-2-yl)-1H-pyrazole-4-carboxamide], the responses/patients (DLBCL) was 6/25, the “inhibition of xenograft tumor growth” value (TMD8 BTK WT cells) was “potently inhibited the growth” and the ORR ([1]; 52 efficacy-evaluable cBTKi-treated MCL patients, 95% CI: 38-66) was 52%. The “overall response rate (ORR)” value ([1]; 121 efficacy-evaluable cBTKi-treated CLL patients, median prior lines=4, 95% CI: 53-71) was 62%, the ORR ([1]; CLL/SLL patients with BTK C481-mutant disease (17/24)) was 71% and the ORR ([1]; CLL/SLL patients with BTK-wildtype disease (43/65)) was 66%. It also gave an ORR ([1]; CLL/SLL patients with cBTKi intolerance (22/42)) of 52%, an ORR ([1]; CLL/SLL patients with prior cBTKi resistance (53/79)) of 67% and an ORR ([1]; Waldenstrom's macroglobulinemia (WM), n=19) of 68%. The “overall response rate (ORR)” value ([1]; cBTKi-treated CLL patients followed for ≥10 months) was 84%, the ORR ([1]; follicular lymphoma (FL), n=8) was 50% and the “responding patients who remain progression-free” value ([1]; of 117 responding CLL or MCL patients) was “all but 8”. For the same molecule, the ORR ([2]; 13 patients with prior covalent BTK inhibitor) was 69%, the ORR ([2]; 19 efficacy-evaluable WM patients) was 68% and the WM responders ongoing ([2]; median follow-up 4.6 months) was “Ten of 13”. The “MR, patients” value [2, 3] was 4, the “PR, patients” value [2, 3] was 5 and the “PR, patients” value ([2]; of 19 efficacy-evaluable) was 9. For the same molecule, the “minor response (MR), patients” value ([2]; of 19 efficacy-evaluable) was 4, the patients with responses (follicular lymphoma) was 4 and the responses (Richter's transformation) was 75%. For the same molecule, the “inhibition of xenograft tumor growth” value (TMD8 BTK C481S cells) was “potently inhibited the growth”, the “responses at first dose level” value (CLL/SLL and B-cell NHL; 25 mg QD) was “Responses were observed” and the “clinical activity/efficacy across dose levels” value (CLL/SLL and B-cell NHL; 7 dose levels, 25 mg to 300 mg QD) was “demonstrated activity across all dose levels; also recorded: Efficacy was observed at all dose levels”. The “treated patients remaining on BTK-I” value (CLL/SLL and B-cell NHL; 237 of 323 at data cut) was 73%, the “responses in remaining efficacy-evaluable patients” value (CLL/SLL and B-cell NHL; remaining 39 patients (other B-cell malignancies)) was 8 and the “inhibition of xenograft tumor growth” value (REC-1 cells) was “potently inhibited the growth”.
